For 89 compounds, melting point results are on record in a melting point compilation (Tetko et al.; mined from patent text by program, amines drawn as free bases though some values may be those of a salt).

Usually melting point stands for the temperature, or range, at which the solid turns liquid.

As for `N#Cc1cccc(Oc2ccc(CBr)cc2)c1C#N`, the melting point fell in the range of 130 to 132 °C. In the case of `CCCCCS(=O)(=O)NC(=O)CCc1ccc(OCCCOC)cc1Oc1ncc(C(F)(F)F)cc1Cl`, the melting point worked out at 115 °C.

In turn, `CCOC(=O)c1ccc(NC(=O)NC2CN(C3CCCCC3)c3ccccc3N(CC(=O)c3cccs3)C2=O)cc1` (centres undefined) registered a melting point of 219 to 220 °C.

`COc1ccc(-c2coc(C(=O)NNC(=O)c3ccc(O)c(C#N)c3)c2-c2ccccc2)cc1` returned a melting point of 146 to 148 °C. The result for `O=C(O)CCC(O)c1ccc(-c2ccccc2)c(F)c1` (centres undefined) reads 133 to 135 °C.

Regarding `CCc1ncnc(NC(CC)c2ccc(Oc3ncccn3)cc2)c1Cl` (centres undefined), the melting point is 100 to 112 °C.

The compound `CC(=O)Nc1nc(CCc2ccc(CCl)cc2)cs1` had a melting point of 145 to 146 °C. The result for `CS(=O)(=O)Nc1cccc(C2=Nc3ccc(-c4ccc(F)cc4)cc3NC(=O)C2)c1` reads 232 to 235 °C; that for `CN1CCN(c2nc(N)c3c(n2)CCCS3)CC1`, 140 to 141 °C. Next, `CCOC(=O)c1cnn2c1c(NC1CC1)nc1ccccc12`: 167 to 169 °C; `CC(C)(C)OC(=O)N1CCN(Cc2ccc(Cl)c(Cl)c2)CC1`: 75 to 76 °C; `COc1nc(C)c(C)nc1NC(=S)N1CCN(c2cc(C)cc(C)c2)CC1`: 160 to 162 °C.

Compound `CCOC(=O)c1cccc(C)c1S(N)(=O)=O` had a melting point of 93 to 94 °C.

As for `CCOC(=O)c1ccc(OCCC2CCN(c3cc(Cl)nnc3Cl)CC2)cc1`, the melting point is 153 to 155 °C.

In turn, `CC(=O)c1ccc(NS(=O)(=O)c2sc3ccc(Cl)cc3c2C)c(S(C)(=O)=O)c1` showed a melting point of 207 to 209 °C. Next, `O=c1[nH]nc2n1-c1ccc(Cl)nc1C(c1ccccc1Cl)=NC2O` (centres undefined): 260 to 262 °C; `OC(CON=C1CCCc2sccc21)CN1CCCC1` (centres undefined): 136 °C. `C=Cc1nc2cc(Br)ccc2o1`: the melting point is 55 to 56 °C.

The compound `COc1cc2c(cc1OC)CN(CCc1cccc(NC(=O)c3cccc4c(=O)c5cccc(OC)c5[nH]c34)c1)CC2` returned a melting point of 152 °C. `Cc1c(NC(=O)CC(CSC(=O)Cc2ccccc2)c2ccccc2)cccc1C(=O)O` (centres undefined) gave a melting point of 135 to 137 °C. Next, `CNC(=O)OCc1c(COC(=O)NC)c(-c2ccc(OC)cc2)n2c1Cc1cc(OC)ccc1-2`: 110 to 112 °C; `O=C(Nc1ccc(F)cc1F)C(=O)c1c2n(c3ccccc13)CCNCC2`: 184 to 186 °C.

Consider `Cc1cc(OCCc2nc(-c3ccccc3)oc2C)cc(C)c1CN(O)C(N)=O`, for which the melting point was 170 to 171 °C.

`O=C(C=Cc1ccncc1)C=Cc1ccncc1`: the melting point fell in the range of 145 to 146 °C.

`O=C(c1ccccc1)c1nc(Cl)ccc1[N+](=O)[O-]` had a melting point of 107 °C. Next, `CCCc1nc2c(N)nc3cc(OCCN(CCOc4ccc5c(c4)nc(N)c4nc(CCC)sc45)C(N)=O)ccc3c2s1`: 213 to 216 °C; `CCCOCc1nc2nccnc2c(=O)[nH]1`: 158 to 160 °C. Next, `COC(=O)c1ccc(CC(C)(C)NCC(O)c2ccccc2)cc1` (centres undefined): 125 °C; `CN=C(NC#N)NCCSCc1ncccc1O`: 146 to 148 °C; `CCOc1c(OC)c(OC)cc(C(=O)OC)c1-c1c(C(=O)OC)cc(OC)c2c1OCO2`: 93 to 94 °C. Compound `NCc1cccc(O)c1` yielded a melting point of 79 to 81 °C. The result for `CC(=O)NC1C(O)OC(COC(C)=O)C(O)(C(C)=O)C1OC(C)C(=O)O` (centres undefined) reads 85.8 to 90.8 °C; that for `O=S(=O)(CC=Cc1ccccc1)CCCOC1CCCCO1` (centres undefined), 45 °C. The result for `CN(c1cccc2cc(-c3ncc(CCC(=O)NS(C)(=O)=O)s3)[nH]c12)S(=O)(=O)c1cccs1` reads 217 to 218 °C; that for `O=[N+]([O-])c1ccc(-n2cccn2)cc1`, 210 °C; that for `CNCC(O)c1ccc(C)o1` (centres undefined), 40 to 45 °C. Next, `CCCCCCCCCCCCC(O)CC#CCCCC(=O)O` (centres undefined): 80.5 to 81 °C; `Cc1oc(-c2ccc(C(F)(F)F)cc2)nc1-c1cccc(-c2ccc(OC(Cc3ccccc3)C(=O)O)cc2)c1` (centres undefined): 148 to 149 °C; `N#CCc1ccc([N+](=O)[O-])c(OCc2ccccc2)c1`: 73 to 85 °C.

Compound `CN(C)CCCNC1c2ccccc2C(=O)N1c1ccc2ccc(Cl)nc2n1` (centres undefined) displayed a melting point of 143 °C. Next, `C/C(C=O)=C\COc1cccc(O)c1`: 136 to 138 °C; `O=C(O)c1ccc(-c2ncc(-c3ccc(Cl)cc3)s2)cc1`: over 300 °C. The result for `Clc1ccnc(Nc2ccccc2)n1` reads 134 to 135 °C. Next, `COC(=O)c1ccc(OC(=O)c2ccc(C(=O)Oc3ccc(C(=O)OC)cc3)cc2)cc1`: 243 to 245 °C. Consider `CC(NC(=O)CCCl)c1ccc(Cl)cc1` (centres undefined), for which the melting point fell in the range of 86 to 91 °C. The result for `Cc1cccc(-c2n[nH]cc2-c2ccnc(-c3ccc(-n4ccnc4C)cc3)c2)n1` reads 128 °C; that for `CCOC(=O)CCC(=O)c1ccc(-c2ccccc2)cc1`, 100 to 101 °C; that for `COC(=O)c1ccc(Cc2cn(C)c3ccc(NC(=O)NC4CCCC4)cc23)c(OC)c1`, 210 to 212 °C.

`Cc1ccccc1Sc1cccc(CO)c1O` yielded a melting point of 75 to 77 °C. Next, `Oc1cc2[nH]c3cc(O)c(O)cc3c2cc1O`: over 300 °C; `CNC(=S)NCCSCc1cnccn1`: 99.5 to 100 °C; `COc1cccc(-c2cc(F)c3c(c2)CC(CN)O3)c1` (centres undefined): over 250 °C. Next, `C[C@@](N)(Cc1ccc(-c2cncnc2)cc1)C(=O)Nc1cc(Cl)cc(Cl)c1`: 124 to 126 °C; `CSc1nnc(-c2ccc3occ(-c4cc(F)ccc4F)c3c2)o1`: 158 to 159 °C; `COc1ccc(C2=NN(C3CCN(c4ncnc5sccc45)CC3)C(=O)[C@@H]3CC=CC[C@H]23)cc1OC`: 219 to 220 °C.

Take `COc1cc(OC)c2c(c1OC)CCC(C(=O)Cc1cccc(F)c1)C2C#N` (centres undefined): the melting point lay within 58 to 62 °C.

For `Cc1nnc(-c2nsc3ccc([N+](=O)[O-])cc23)s1`, the melting point fell in the range of 239 to 240 °C. The result for `CC(C)C(=O)Oc1ccc2c(c1Cl)Sc1ccccc1N2` reads 155 °C; that for `CCOC(=O)c1ccccc1-n1c(CCl)nc2ccc(Cl)cc2c1=O`, 195 to 197 °C.

In turn, `COc1ccc(-c2ccc(NCc3ccccc3)nn2)cc1OC1CCCC1` showed a melting point of 116 °C. `O=C1N(c2ccccc2)CCN1C1CCNCC1` registered a melting point of 123 to 124 °C.

In turn, `O=C(O)c1ccc(OC(F)F)c2oc3ccc(C(F)(F)F)cc3c12` displayed a melting point of 280 °C.

In turn, `Cc1c(F)c(N2CCC(N)C2)c(Cl)c2c1c(=O)c(C(=O)O)cn2C1CC1` (centres undefined) gave a melting point of 124 to 126 °C. The result for `CN(C)c1ccc2cc(-c3ccnc(SCCO)c3C#N)ccc2c1` reads 210 to 212 °C. `C[C@@H](c1ccc(-c2cc(=O)n(C)cc2F)cc1)N1CC[C@](CC(C)(C)O)(c2ccccc2)OC1=O` had a melting point of 183 to 184 °C.

In the case of `CC(=NNc1ccc(C(F)(F)F)cc1)C(=O)NCc1ccc(Cl)cc1`, the melting point fell in the range of 124 to 125 °C. Compound `CSc1nc(C)c(Cl)c(Cl)n1` displayed a melting point of 49 to 50 °C. The result for `NC1=C2C=NN=C2N(c2ccc([N+](=O)[O-])cc2)CN1c1ccccc1` reads 348 to 349 °C.

Turning to `CC(Oc1cnn(-c2ccc(Cl)cc2)c(=O)c1Cl)c1ccc(Cl)cc1` (centres undefined), the melting point was in the range of 135 to 138 °C. The result for `Cc1cccc(C(=O)c2ccc(Cl)cc2)c1` reads 108 °C; that for `N#Cc1cccc(N2CCc3cc(OCc4ccccc4)ccc32)c1`, 102 to 104 °C. The compound `Cc1cc(-c2ccnc(Cl)c2)n(-c2ccc(Cl)cc2)n1` yielded a melting point of 110 °C. `CCC(=O)/C=C/c1cn(-c2ccccc2)nc1OCc1ccc(OCc2nc(-c3ccco3)oc2C)c(OC)c1`: the melting point was 167 to 168 °C. `CC(=O)Nc1nc2c(Oc3cc(-c4ccc(C(F)(F)F)cc4NC(=O)[C@@H]4CCN4CC(C)C)ncn3)cccc2s1` registered a melting point of 174 to 175 °C.

Compound `CC(=O)OCCCN1CCC(CNC(=O)[C@@H]2CCCN2S(=O)(=O)c2ccc(Cl)c(COc3cccc4c(-n5cccn5)cc(C)nc34)c2Cl)CC1` had a melting point of 89 °C.

Turning to `CN(CCC#N)c1nc(Nc2cccc(NS(C)(=O)=O)c2)nc2[nH]cnc12`, the melting point is 218 to 222 °C.

`CCCCCCCCCCCCc1ccc(S(=O)(=O)Nc2nnc(CCCCCNC)s2)cc1`: the melting point was in the range of 158 to 160 °C. The result for `CCO[C@@H]1[C@@H](OC)[C@H](C)O[C@@H](OC(=O)N(C(C)=O)c2ccc(-c3ncn(-c4ccc(OC(F)(F)C(F)(F)F)cc4)n3)cc2)[C@@H]1OC` reads 70 to 72 °C; that for `COc1ccc(-c2cc3ccc(C(=O)O)cc3o2)cc1C12CC3CC(CC(C3)C1)C2`, 290 °C; that for `ClC1(Cl)OC(Cl)(Cl)c2ccccc21`, 85 to 86 °C. The result for `N#CCCNC(=O)c1cccc(-c2cccc3nn(Cc4ccc(F)c(Cl)c4)cc23)c1` reads 165 to 166 °C; that for `CCCCS(=O)(=O)ON=C(C#N)c1ccc(OC)cc1`, 71 °C. The result for `COc1cc(N)c(Cl)cc1C(=O)NC1CCN(CC2CCN(C(=O)c3ccco3)CC2)CC1` reads 179 to 181 °C; that for `O=C(NCCO)c1cccc(-c2cccc3nc(Cc4cccc(C(F)(F)F)c4)sc23)c1`, 94 to 95 °C; that for `CC(C)CCS(=O)(=O)NC(=O)/C=C/c1cc(OCC2CC2)nn1Cc1ccc(C(F)(F)F)cc1Cl`, 156 to 158 °C. `COc1cc(OC)c2c(=O)c(OC)c(-c3ccc(O)c(OC)c3)oc2c1` gave a melting point of 221 to 223 °C.

Compound `CS(=O)(=O)c1ncc2c(n1)N(c1ccccc1)C(=O)N(c1ccccc1Cl)C2` showed a melting point of 186 °C. Next, `CC(=O)Nc1ccn(C2CCC(CO)O2)c(=O)n1` (centres undefined): 143 to 145 °C; `COc1ccc(C(=O)c2c(F)cccc2F)cc1`: 122 to 124 °C.
